{"source": "patent US7709497B2", "about": "“Pyrazolo[3,4-b]pyridine compound, and its use as a PDE4 inhibitor” (Glaxo Group Limited, priority 2004, dated 2010)", "key": {"[1]": {"tested_on": "atopic dermatitis patients", "details": "0.15% cream vs cream vehicle and hydrocortisone 17-butyrate (0.1%) cream; cited from earlier work"}, "[2]": {"tested_on": "Dinitrofluorobenzene (DNFB)-induced delayed type hypersensitivity (DTH) response in pigs", "experiment": "Pig model of atopic dermatitis: DNFB-induced DTH response, skin topical administration", "format": "in vivo", "source_text": "The pig DTH (delayed type hypersensitivity) model of contact hypersensitivity utilizes the Th2-mediated inflammatory response in pig skin to mimic the pathology of atopic dermatitis in humans. The model measures the potential anti-inflammatory effect of compounds, topically-applied to the skin, on the acute DTH (delayed type hypersensitivity) response in castrated male Yorkshire pigs.\nIn general in the assay, pigs (domestic Yorkshire pigs, 15-18 kg at time of sensitization, castrated males) are first sensitized by topical application of ca. 10% (w/v) dinitrofluorobenzene (DNFB) dissolved in DMSO:acetone:olive oil (ca. 1:5:3) (ca. 40 mg DNFB, 400 microlitre solution total) to the ears (outer) and groin (inner). The pigs are then challenged 12 days later with ca. 0.6% (w/v) DNFB applied to randomized sites on the shaved back of the pigs (ca. 90 micrograms/site; sites are identified and numbered by grid made with marking pen).\nOn the day of challenge, the treatments are performed at about 2 hours prior to and about 6 hours after challenge (for DMSO/acetone solutions/suspensions, to maximize exposure to drug), or at about 30 minutes after and about 6 hours after challenge (for topical ointments or creams, representing a more clinically relevant treatment protocol).\nOne day (about 24 hrs) after challenge, and optionally again at ca. 48 hrs post challenge, test sites are visually evaluated for intensity and extent of erythema by measuring the diameter of the reaction at its widest point and assigning scores of 0 to 4 for each of erythema intensity and erythema extent. Induration (a measure of swelling) is also scored 0 to 4. Scores for erythema intensity, erythema extent and induration are assigned according to the following criteria: Intensity of Erythema: 0=normal, 1=minimal, barely visible, 2=mild, 3=moderate, 4=severe. Extent of Erythema (not raised): 0=no edema, 1=macules of pin head size, 2=lentil sized macules, 3=confluent macules, 4=diffuse over entire site. Induration (palpable): 0=normal, 1=nodules of pin head size, 2=doughy lentil sized nodules, 3=confluent firm nodules, 4=diffuse hard lesion. The summed visual score at ca. 24 hours includes the individual scores for erythema intensity, erythema extent, and induration; so the maximal summed score for each site would be 12. High summed scores can generally indicate a high inflammatory response. Visual scores are subject to some inaccuracy/error.\nDifferences in the summed score between adjacent control (placebo) and treatment sites on the grids are calculated. This difference value is then used to determine the percent inhibition compared to the summed score for the control (placebo) sites. The more negative the difference value, the greater the calculated inhibition. Percent inhibition of (percent inhibition compared to) the mean summed score can be calculated.\nAbout 24 hours after challenge, treatment sites can optionally also be visually evaluated for lesion area.\nThe anti-inflammatory effect of the compound of formula (I) (“free base” form), applied topically to the skin, on the acute DTH response in castrated male Yorkshire pigs is compared to that of another PDE4 inhibitor cipamfylline (BRL-61063) and the topical immunomodulator pimecrolimus.\nIn the above assay, the compound of formula (I) is topically administered: either (A) at ca. 2.5% (w/v) concentration in a solution of ca. 10% DMSO/90% acetone (ca. 50 microliters or ca. 1.5 mg/site) at about 2 hours prior to and about 6 hours after the DNFB challenge; or (B) at ca. 0.5% (w/w) concentration in an ointment containing propylene glycol (PG)*(ca. 25 mg of formulation/site) at about 30 minutes after and about 6 hours after the DNFB challenge. […]"}, "COPD patients": {"tested_on": "COPD patients", "details": "cilomilast: 15 mg orally twice daily; cited from earlier work"}}}
{"compound": "Nc1nc2c([nH]1)c(=O)n(CC1CC1)c(=O)n2CC1CC1", "note": "[cipamfylline, reference compound]", "values": [{"measurement": "efficacy in treatment of atopic dermatitis patients", "setting": "[1]", "result": "significantly more effective than vehicle, but significantly less effective than hydrocortisone 17-butyrate (0.1%) cream"}, {"measurement": "reduction in summed scores", "setting": "[2]; ca. 0.25% (w/w) in ointment, not statistically significant", "result": "6-7%"}, {"measurement": "reduction in mean summed score", "setting": "[2]; ca. 2.5% (w/v) in DMSO/acetone solution, vs vehicle alone, ca. 24 h after challenge", "result": "about 8%"}]}
{"compound": "COc1ccc([C@]2(C#N)CC[C@@H](C(=O)O)CC2)cc1OC1CCCC1", "note": "[cilomilast]", "values": [{"measurement": "forced expiratory volume in 1s (FEV1) in COPD patients", "setting": "COPD patients", "result": "appears to improve forced expiratory volume in 1s (FEV1)"}]}
{"compound": "CC[C@@H]1/C=C(\\C)C[C@H](C)C[C@H](OC)[C@H]2O[C@@](O)(C(=O)C(=O)N3CCCC[C@H]3C(=O)O[C@H](/C(C)=C/[C@@H]3CC[C@H](Cl)[C@H](OC)C3)[C@H](C)[C@@H](O)CC1=O)[C@H](C)C[C@@H]2OC", "note": "[pimecrolimus, reference compound]", "values": [{"measurement": "inhibition of summed scores", "setting": "[2]; 1% (w/w) cream formulation, p<0.05 by ANOVA", "result": "about 29%"}]}
